Test results as given in patent publication EP0923530B1, “INHIBITION OF MATRIX METALLOPROTEASES BY SUBSTITUTED BIARYL OXOBUTYRIC ACIDS” (Bayer Corporation, priority 1996, dated 1997).

Assays:
MMP-9 = biological target: T1, MMP-9 (Homo sapiens, UniProt P14780); assay: P218 quenched fluorescence assay (MMP Microfluorometric Profiling Assay), MMP-9; format: biochemical; settings: 6 µM P218 substrate, 25 min at 37°C, pH 6.5; read-out: MMP-9 Fluorogenic IC50
T1 construct: made in house
Description: (§1) The P218 quenched fluorescence assay (Microfluorometric Profiling Assay) is a modification of that originally described by Knight, et al.. FEBS Lett. 296, 263 (1992) for a related substance and a variety of matrix metalloproteinases (MMPs) in cuvettes. The assay was run with each invention compound and the three MMPs, MMP-3, MMP-9 and MMP-2, analyzed in parallel, adapted as follows for a 96-well microtiter plate and a Hamilton AT® workstation. P218 Fluorogenic Substrate: P218 is a synthetic substrate containing a 4-acetyl-7-methoxycoumarin ( MCA) group in the N-terminal position and a 3-[2, 4-dinitrophenyl]-L-2,3-diaminopropionyl (DPA) group internally. This is a modification of a peptide reported by Knight (1992) that was used as a substrate for matrix metalloproteinases. Once the P218 peptide is cleaved (putative clip site at the Ala-Leu bond), the fluorescence of the MCA group can be detected on a fluorometer with excitation at 328 nm and emission at 393 nm. P218 is currently being produced BACHEM exclusively for Bayer. P218 has the structure: [formula]
Recombinant Human Pro-MMP-9: Human pro-gelatinase B (pro-MMP-9) derived from U937 cDNA as described by Wilhelm, et al. J. Biol. Chem. 264, 17213 (1989) was expressed as the full-length form using a baculovirus protein expression system. The pro-enzyme was purified using methods previously described by Hibbs, et al. J. Biol. Chem. 260, 2493 (1984).
Activation of Pro-MMP-9: […] 20 µg/mL in 50 mM Tris at pH 7.4, 10mM CaCl2, 150 mM NaCl, and 0.005% Brij-35 (MMP-9 activation buffer) was activated by incubation with 0.5 mM p-aminophenylmercuric acetate (APMA) for 3.5 h at 37°C. The enzyme was dialyzed against the same buffer to revmove the APMA.
(§2) Hamiltion Microlab AT Plus: The MMP-Profiling Assay is performed robotically on a Hamilton MicroLab AT Plus®. […]
(§3) Millipore Cytofluor II. Following incubation, the plate was read on a Cytofluor II fluorometric plate reader with excitation at 340 nm and emission at 395 nm with the gain set at 80. […]

MMP-2 = MMP-2 (Homo sapiens, UniProt P08253); assay: biochemical
Chain of MMP-2 (P08253 110-660): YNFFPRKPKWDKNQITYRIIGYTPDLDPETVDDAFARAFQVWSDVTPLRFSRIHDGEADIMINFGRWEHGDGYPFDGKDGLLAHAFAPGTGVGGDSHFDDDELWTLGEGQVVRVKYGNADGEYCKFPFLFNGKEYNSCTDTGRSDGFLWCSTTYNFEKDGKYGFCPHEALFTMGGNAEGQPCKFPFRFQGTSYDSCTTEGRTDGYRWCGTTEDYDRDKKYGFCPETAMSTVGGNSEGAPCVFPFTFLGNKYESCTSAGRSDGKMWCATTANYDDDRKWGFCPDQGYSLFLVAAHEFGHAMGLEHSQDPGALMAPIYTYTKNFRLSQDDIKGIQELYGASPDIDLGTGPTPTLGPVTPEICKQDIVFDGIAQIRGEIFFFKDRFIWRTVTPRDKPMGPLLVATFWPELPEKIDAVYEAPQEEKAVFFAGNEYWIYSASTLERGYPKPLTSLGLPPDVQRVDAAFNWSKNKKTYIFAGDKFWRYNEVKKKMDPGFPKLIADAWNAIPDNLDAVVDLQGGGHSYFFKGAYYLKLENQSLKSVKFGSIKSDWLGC

MMP-3 = biological target: T2, MMP-3 (Homo sapiens, UniProt P08254); assay: P218 quenched fluorescence assay (MMP Microfluorometric Profiling Assay), MMP-3; format: biochemical; settings: 6 µM P218 substrate, 25 min at 37°C, pH 6.5; read-out: MMP-3 Fluorogenic IC50
T2 construct: made in house; host or cells: CHO cells
T2 sequence (P08254 100-477): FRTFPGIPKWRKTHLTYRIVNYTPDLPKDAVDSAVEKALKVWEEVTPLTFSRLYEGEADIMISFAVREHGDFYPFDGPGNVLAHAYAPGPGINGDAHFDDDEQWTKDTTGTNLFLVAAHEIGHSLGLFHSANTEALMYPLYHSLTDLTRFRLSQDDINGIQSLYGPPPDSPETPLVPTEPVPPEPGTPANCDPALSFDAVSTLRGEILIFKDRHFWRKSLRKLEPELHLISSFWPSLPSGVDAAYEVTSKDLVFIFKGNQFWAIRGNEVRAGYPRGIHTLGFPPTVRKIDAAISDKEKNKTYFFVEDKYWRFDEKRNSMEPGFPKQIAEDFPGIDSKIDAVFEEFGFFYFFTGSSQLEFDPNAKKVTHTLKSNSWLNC
Description: as §1
Recombinant Human CHO Pro-MMP-3: Human CHO pro-stromelysin-257 (pro-MMP-3) was expressed and purified as described by Housley, et al.. J. Biol. Chem. 268, 4481 (1993).
Activation of Pro-MMP-3: Pro-MMP-3 at 1.72 µM (100 µg/mL) in 5 mM Tris at pH 7.5, 5 mM CaCl2, 25 mM NaCl, and 0.005% Brij-35 (MMP-3 activation buffer) was activated by incubation with TPCK (N-tosyl-(L)-phenylalanine chloromethyl ketone) trypsin (1:100 w/w to pro-MMP-3) at 25 °C for 30 min. The reaction was stopped by addition of soybean trypsin inhibitor (SBTI; 5:1 w/w to trypsin concentration). This activation protocol results in the formation of 45 kDa active MMP-3, which still contains the C-terminal portion of the enzyme.
as §2, §3

T1 sequence (P14780 107-707 limits assumed): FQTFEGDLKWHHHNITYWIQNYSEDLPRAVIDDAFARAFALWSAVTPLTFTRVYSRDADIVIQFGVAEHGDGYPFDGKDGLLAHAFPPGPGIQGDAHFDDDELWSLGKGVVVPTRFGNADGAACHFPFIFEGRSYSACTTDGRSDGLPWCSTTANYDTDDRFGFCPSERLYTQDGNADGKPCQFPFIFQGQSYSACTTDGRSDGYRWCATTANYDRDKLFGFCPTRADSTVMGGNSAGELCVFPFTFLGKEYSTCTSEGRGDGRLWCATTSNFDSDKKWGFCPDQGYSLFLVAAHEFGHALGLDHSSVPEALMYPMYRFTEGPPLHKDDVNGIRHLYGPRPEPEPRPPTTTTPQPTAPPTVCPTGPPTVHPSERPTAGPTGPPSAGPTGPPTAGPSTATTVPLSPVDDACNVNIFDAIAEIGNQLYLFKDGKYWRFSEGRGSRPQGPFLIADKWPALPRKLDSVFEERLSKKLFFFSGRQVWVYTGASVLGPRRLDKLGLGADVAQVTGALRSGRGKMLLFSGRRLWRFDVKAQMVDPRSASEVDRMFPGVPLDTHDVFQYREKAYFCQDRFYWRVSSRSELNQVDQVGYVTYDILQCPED

Structure (SMILES)	IC50 (MMP-9)	IC50 (MMP-2)	IC50 (MMP-3)
O=C(c1ccc(-c2ccc(Cl)cc2)cc1)C1CCC(Cn2nnc3ccccc3c2=O)C1C(=O)O (stereo not drawn) [Example 1, 2-[(4'-chloro[1,1'-biphenyl]-4-yl)carbonyl]-5-[(4-oxo-1,2,3-benzotriazin-3(4H)-yl)methyl]-cyclopentanecarboxylic acid]	0.34 nM	0.39 nM	1.7 nM
O=C(CC(CCn1nnc2ccccc2c1=O)C(=O)O)c1ccc(-c2ccc(Cl)cc2)cc1 (stereo not drawn) [Example 19, α-[2-(4'-chloro[1,1'-biphenyl]-4-yl)-2-oxoethyl]-4-oxo-1,2,3,-Benzotriazine-3(4H)-butanoic acid]	4.7 nM	2.4 nM	47 nM
CC1=NCC(=O)N(CCC(CC(=O)c2ccc(-c3ccc(Cl)cc3)cc2)C(=O)O)c2ccccc21 (stereo not drawn) [Example 22, α-[2-(4'-chloro[1,1'-biphenyl]-4-yl)-2-oxoethyl]-2,3-dihydro-5-methyl-2-oxo-1H-1,4-benzodiazepine-1-butanoic acid]	120 nM	24 nM	140 nM
